Values joined by “and” are separate entries in the source; they are usually repeats but may differ in a detail not shown here. Equal values may be shown once. “Also recorded” adds a separate entry of the source.
Experiments:
left ventricle = assay: Heart left ventricle sections and collagen staining in type I diabetic rats; type: in vivo, rat; conditions: type I diabetic rats treated daily with 1 mM
Description: Staining is for collagen intensity (FIG. 11B), which is increased in diabetes. Analyses on the rats were done for acute changes (8 weeks of diabetes, 45 rats) and chronic changes (8 months of diabetes, 45 rats). In addition to all measurements on the retina, tissue sections of the heart were taken at 8 weeks and 8 months to insure that there is no hypertrophy of the ventricles due to the drug. A Western blot for myosin light chain, a surrogate marker of cardiovascular hypertrophy was also performed. Each month, all rats receive 2 analyses of visual function, electroretinogram (ERG) and live retinal imaging using Optical Coherence […] (OCT). Retinal thickness and live retinal imaging were assessed using rodent OCT. This technology allows for non-invasive visualization of each layer of the retina for multiple testing of the same animal.

[1] = system: retinal capillaries of diabetic rats; assay: Quantitation of acellular (degenerate) capillaries in trypsin-digested retinal vasculature; type: in vivo, rat; conditions: 1 mM eye drops, 8 months of diabetes, hydrochloride
Protocol: For the acellular capillary counts, retinas from an eye of control, diabetic, and diabetic+2 were used. Eyes were enucleated and placed into 10% buffered formalin for 5 days. The retina was dissected in 3% crude trypsin solution (Difco Bacto Trypsin 250, Detroit, Mich.) containing 0.2 M sodium fluoride at 37 C for 2 hours (5). The neural retina was gently brushed away and the remaining retinal vascular tree was dried onto a glass slide. Once the isolated retinal vascular tree was dried onto the glass slide, the slide was stained with hematoxylin-periodic acid-Schiff. Degenerate (acellular) capillaries were counted in mid-retina in six to seven fields evenly spaced around the retina. Degenerate capillaries were identified as capillary-sized tubes having no nuclei anywhere along their length. Degenerate capillaries were counted only if their average diameter was at least 20% of that found in surrounding healthy capillaries (6-7).

[2] = Plasma levels of Compound 2 after intravenous or topical administration to rats (LC/MS/MS); type: in vivo; conditions: rat
Protocol: B/PK was characterized following intravenous administration to rats. Following drug administration, blood samples (2-300 μL) were withdrawn from the jugular vein catheter at regular intervals after dosing (5, 15, 30, 45 minutes and 1, 2, 4, 8, 16, and 24 hours) into K3-EDTA anti-coagulated sampling tubes. Plasma was obtained by centrifugation and stored at −80° C. until analysis. The heart, lung and spleen were harvested in order to determine the tissue distribution of Compound 2. Cumulative urinary samples were collected over 24 hours post-dose and stored at −80° C. until analysis. B/PK was characterized following topical administration. Following drug administration to rats, eyes were enucleated, irrigated with saline, and vitreous humor aspirated from the inner region of the vitreous chamber using an 18-gauge needle. Blood samples were obtained simultaneously in order to determine the extent of systemic exposure following topical administration. Vitreous humor and blood samples were obtained at regular intervals after dosing. Time points were determined based upon concentration time profiles obtained following intravenous administration of Compound 2. For data analyses B/PK parameters were derived from the obtained plasma, vitreous humor, urine and feces concentration data by standard non-compartmental analysis. Terminal half-life was determined as the ratio of ln 2 divided by λz, the negative of the slope of the linear regression of the natural log concentration vs. time profile during the terminal phase. Systemic and ocular exposure was determined as plasma or ocular area under the concentration-time curve (AUC) using the trapezoidal rule. Compound 2 concentration determination and metabolite profiling is conducted using a validated LC/MS/MS assay based on the methodology described (14-15). The LC-MS/MS system comprises a Shimadzu HPLC system (Kyoto, Japan), API-4000 Q Trap tandem mass spectrometer (Foster City, Calif., USA) equipped with a turbo ion-spray and a HTC-PAL autosampler (Leap Technologies, Carrboro, N.C., USA).

[3] = Tissue distribution of Compound 2 in heart, lung and spleen after topical delivery; type: in vivo; conditions: rat, 24 hours after topical 10 mg/kg, single animals 1-5
retina of diabetic rats = assay: Assessment of retinal thinning and loss of cells in ganglion cell layer; type: in vivo, rat
Description: Assessment of retinal thinning and loss of cells in ganglion cell layer Formalin-fixed paraffin sections were stained with toluidine blue for light microscopy and morphometry of retinal thickness (8). Pictures were taken at four locations in the retina (both sides of the optic nerve and mid-retina) at 400×. The nuclei in the retinal ganglion cell layer (GCL) were counted in a […] section of each picture, and the thickness of the inner retina (from the top of the inner nuclear layer to the inner limiting membrane) was assessed using a Retiga camera attached to a Nikon Biophot light microscope with Qcapture software (Qlmaging, Burbay, BC, Canada). Retinal thickness and number of cells in the ganglion cell layer were measured using OpenLab software (Improvision, Lexington, Mass.). Retinal thickness and live retinal imaging were assessed using rodent OCT. Each layer of the retina was examined multiple times on the same animal in a non-invasive way to determine changing in specific regions over the course of the experiment. […] Light microscopy was used for histological examination of neuronal changes, which often occur in the acute phases. Formalin-fixed paraffin sections were stained with toluidine blue for light microscopy and morphometry of retinal thickness. Pictures were taken at four locations in the retina (both sides of the optic nerve and mid-retina) at 400×. The nuclei in the retinal ganglion cell layer (GCL) were counted in a 100 μm section of each picture. The thickness of the inner retina from the top of the inner nuclear layer to the inner limiting membrane was assessed using a Retiga camera attached to a Nikon Biophot light microscope with Qcapture software (Qlmaging, Burbay, BC, Canada). Retinal thickness and number of cells in the retinal ganglion cell layer were measured using OpenLab software (Improvision, Lexington, Mass.). Unpaired T-tests were used to compare data from control, diabetic, and diabetic+eye drop treated animals, with P<0.05 being accepted as significant.

cleaved caspase 3 = assay: Cleaved caspase 3 ELISA of retinal lysates of diabetic rats; type: in vivo, rat; conditions: Compound 2 eye drops
Description: To determine the TNF concentration (Pierce, Rockford Ill.) and levels of cleaved caspase 3 (Cellular Signaling, Danvers, Mass.), ELISA analyses were done according to manufacturers instructions, except that equal protein was loaded into the cleaved caspase 3 ELISA so the optical density numbers can be used.

[4] = delayed treatment: 6 month diabetic rats, Compound 2 for 2 months
[5] = diabetic rats, 1 mM eye drops as preventative, central retina, hydrochloride

SMILES: COc1cc(CCNC[C@H](O)c2ccc(O)c(O)c2)cc(OC)c1OC.Cl (single isomer, unassigned) [Compound 2, 4-[1-hydroxy-2-(1-ethylamino-3-,4-,5-trimethoxyphenyl)ethyl]benzene-1,2-diol hydrochloride]
- left ventricle compared to untreated diabetic rats (left ventricle): no difference in the left ventricle
- numbers of degenerate capillaries [1]: significantly reduced numbers of degenerate capillaries; also recorded: significantly reduce numbers of degenerate capillaries to levels similar to controls
- concentration at 45 min ([2]; Lewis, plasma, over 45 minutes, dose and route not stated): ~6 ng/mL
- concentration at 1 h ([2]; plasma, intravenous or topical, 10 mg/kg, limit of detection, read-out: plasma level after 1 hour): < 2.5 ng/mL
- time of clearance from plasma ([2]; intravenous, 1 mg/kg): < 1 h
- plasma concentration ([2]; intravenous, 10 mg/kg): ~1000 ng/mL
- time of clearing from plasma ([2]; intravenous, 10 mg/kg): ≤ 30 min
- plasma concentration at the 2 time points with detection ([2]; topical, 10 mg/kg): ~80 ng/mL
- detection in plasma after topical delivery ([2]; topical, therapeutic dose 1 mM or 1 mg/kg, hydrochloride): did not result in detectable Compound 2 in plasma; also recorded: below the limits of detection; also recorded: not detected
- Plasma concentration at start of decline ([2]; dose and route not stated): about 100 ng/ml
- concentration in Heart [3]: <400 ng/g
- concentration in Lung ([3]; hydrochloride): 463.43 ng/g and 2262.08 ng/g and 2862.22 ng/g and 2060.08 ng/g and 535.24 ng/g
- concentration in Spleen ([3]; hydrochloride): 12134.03 ng/g and 8393.8 ng/g and 7061.2 ng/g and 4544.4 ng/g and 34331.0 ng/g
- concentration at 24 h ([3]; heart, topical, 10 mg/kg): < 400 ng/g
- increase in retinal thickness over diabetic rats alone (retina of diabetic rats; [4]): ~50%
- loss of cells in the ganglion cell layer, delayed treatment (retina of diabetic rats; [4]): no loss of cells in the ganglion cell layer
- inner retinal thickness (retina of diabetic rats; [5]): loss of inner retinal thickness was prevented; also recorded: maintains the retinal thickness
- number of cells in the ganglion cell layer (retina of diabetic rats; [5]): prevented in the Compound 2-treated animals; also recorded: maintains the retinal thickness and cell number
- loss of retinal thickness and apoptosis of cells of the ganglion cell layer (retina of diabetic rats; diabetic rats, 50 mM eye drops 1 time each day for 8 months): effective in preventing the loss of retinal thickness and apoptosis of cells of the ganglion cell layer
- cleaved caspase 3 levels in retinal lysates (cleaved caspase 3): reduced following treatment
